Strand notation (5' to 3'): a small letter for the sugar, then the base; units joined by * are phosphorothioate-linked, units joined directly phosphodiester-linked; [ ] holds rarer units or linkages, { } end groups; capitals alone tell only the bases. {m7G} = 7-methylguanosine cap nucleotide; l = locked nucleic acid (LNA); m = 2'-O-methyl; r = 2'-OH (RNA); {P} = phosphate
Columns and labels:
[1] = system: reticulocytes; experiment: Plasma reticulocyte counting by flow cytometry; assay type: in vivo; conditions: mice
Procedure: (§1) mRNA diluted in 50 mM citrate buffer (pH 4) and lipid mix (37.5 mM in ethanol) containing 50 mol % SM-102, 10 mol % DSPC, 38.5 mol % Cholesterol, and 1.5 mol % DMG-PEG2000 were assembled into LNP using a NanoAssemblr Spark instrument [Precision Nanosystems]. Upon formulation, mRNA-LNPs were diluted in 12 mL 1×PBS solution and the buffer was exchanged by concentrating with a 30 kDa spin filter [MilliporeSigma, UFC901008] to remove residue ethanol. Concentrations and encapsulation efficiency of mRNA were determined using Quant-it RiboGreen RNA Assay Kit [ThermoFisher, R11490]. 1 μg NanoLuc or hEPO mRNA-LNP in a total volume of 100 μL was injected through retro orbital injection into each mouse. Four mice were used for each condition of each experiment (NanoLuc imaging, hEPO ELISA, and reticulocyte counting). For NanoLuc imaging, PBS injection was used as negative control. For hEPO/reticulocyte experiments, poly(C)-LNP complex was used as negative control.
10 μL […] sample was added into 1 mL of the Reticulocyte Reagent [BD Bioscience] at the indicated time points and the mixture was incubated at room temperature for 30 minutes with protection from light. The samples were analyzed with Beckman CytoFLEX LX Flow Cytometer with 100,000-event records for each sample. Thiazole orange positive cells are defined as reticulocytes.

[2] = Quantification of plasma hEPO by ELISA after mRNA-LNP injection; assay type: in vivo; conditions: mice; hEPO mRNA-LNP retro-orbital; 6 hours
Procedure: All animal procedures followed animal care guidelines approved by the Institutional Animal Care and Use Committee (IACUC) of the Broad Institute of MIT and Harvard under animal protocol #0255-08-19. Animal experiments were conducted in compliance with IACUC policies and NIH guidelines. The BALB/cj (male, 6~8 weeks old) mice used for in vivo NanoLuc assay in this study were purchased from The Jackson Laboratory (JAX). The C57BL/6 mice (female, 7 weeks old), used for hEPO assay in this study were purchased from The Jackson Laboratory (JAX).
as §1
At the indicated time points, approximately 100 μL of blood was collected with EDTA-coated capillary tubes from each mouse and then transferred to an EDTA-coated tube. The collected blood samples were centrifuged at 2000 g for 10 min, followed by transferring the resulting plasma into another tube. The hEPO levels in the plasma samples were measured by Human Erythropoietin (EPO) ELISA kit [LEGEND MAX, 442907]. Final concentrations for hEPO were adjusted based on the volume and dilution fold.

[3] = system: HeLa cells; experiment: Time-course dual luciferase assay of modified Firefly luciferase mRNA (Renilla control); assay type: cell-based; conditions: HeLa cells; 8-, 24-, 48-hours post-transfection; benchmark m7G-rG
Procedure: The modularity of this workflow enabled divergent construction and evaluation of mRNAs featuring four different types of cap and 5′ UTR modifications (FIG. 8A): (1) base identities within the 5′ UTR, including as locations beyond the third base (+3 position), (2) phosphodiester linkages within the 5′ UTR, (3) sugar backbone modifications within the 5′ UTR, and (4) cap modifications. The effects of all of these different types of modifications on protein translation were assayed using Firefly luciferase reporter at 8-, 24-, and 48-hours post-transfection.
HeLa cells [ATCC, CCL-2] were maintained in DMEM culture media [ThermoFisher Scientific, 119951] containing 10% FBS and 1% penicillin-streptomycin [ThermoFisher Scientific, 15070063] in a 37° C. incubator with 5% CO2 and passaged at a ratio of 1:10 every 3 days. On the day before mRNA transfection, HeLa cells were seeded at 90% confluence in individual wells on 24-well plates. The following day, 50 ng of Renilla luciferase (internal control) mRNA and 50 ng of modified Firefly luciferase mRNA were transfected using Lipofectamine MessengerMAX Transfection Reagent [ThermoFisher Scientific, LMRNA003] per manufacturer's protocols. Additional controls that contain only Renilla luciferase mRNA or lipofection reagent only were included. Three individual transfections were conducted for each condition. 6 hours after transfection, the transfection media was removed, and cells were trypsinized and reseeded to three white clear-bottom 96-well plates [Corning, 3610] in phenol-red-free media. At 8-, 24-, and 48-hours post-transfection, cell culture media was removed and cells were rinsed with DPBS. Cells were lysed and luciferase activity was measured using the Promega Dual Glo Luciferase Assay System [Promega, E2920]. Firefly luminescence/Renilla luminescence for each well was used as mRNA activity readout. In cases where Nluc and Fluc were used, the protocol was conducted similarly using the Nano-Glo Dual-Luciferase Reporter Assay System [Promega, N1610].

[4] = target: T1, eIF4E (Homo sapiens, UniProt P06730); experiment: eIF4E electrophoretic mobility shift assay (EMSA); assay type: binding; conditions: AF647-labeled capped oligos, read-out: eIF4E dissociation constant (Kd)
T1 construct: His; purchased Cayman Chemical Inc 25150
Procedure: (§2) eIF4E affinity to fluorophore-labeled capped RNA oligonucleotides was quantified through electrophoretic mobility shift assay (EMSA) (FIGS. 14D and 9A-9E).
(§3) Capped oligonucleotides were labeled on the 3′ end using AF647 labeled cytidine-5′-phosphate-3′-(6-aminohexyl) phosphate [Jena Bioscience, NU-1706-AF647] and T4 RNA ligase ligated AF647-labeled cytidine onto the capped oligos using manufacturer's protocols. Oligos were then incubated in the binding buffer (1 mM DTT, 50 mM KCl, 10 mM Tris-HCl (pH 7.6), Novex Hi-Density TBE Sample Buffer [Invitrogen, LC6678]) with varying eIF4E-His [Cayman Chemical Inc, 25150] concentrations prepared by sequential dilutions from the stock solution. The oligos and […] were incubated at 4° C. for 30 mins and characterized by EMSA with Novex TBE Gels, 4-20% [Invitrogen, EC6225BOX] at 4° C. AF647 labeled oligos were imaged with BioRad ChemiDoc MP Imaging System [12003154] and band intensities were quantified using ImageJ. For Kd calculation, the proportions of bound were plotted against eIF4E concentration using GraphPad Prism (Specific binding with Hill slope).

[5] = target: T2, human decapping enzyme 2 (hDcp2) (Homo sapiens, UniProt Q8IU60); experiment: hDcp2 decapping assay; assay type: biochemical; conditions: 23-nt capped oligos; for Susceptibility / resistance to hDcp2 decapping: result in words
T2 construct: purchased Enzymax LLC 86
Procedure: Next, the influence of modifications on decapping activity was examined. To this end, 23-nucleotide (23-nt) oligonucleotides with various modification patterns were subjected to decapping reactions and analyzed at different time intervals (FIGS. 14E and 9I).
500 ng of capped oligos were incubated in 75 μL decapping reaction buffer (10 mM Tris-HCl (pH 7.5), 100 mM NaCl, 2 mM MgCl2, 1 mM DTT, 2 mM MnCl2, 1:25 SUPERaseIn (v/v)) with 300 ng of hDcp2 [Enzymax LLC, 86] at 37° C. At indicated time points, 5 μL of reaction mixture was aliquoted out into 10 μL of denaturing gel-loading buffer [NEB, B0363S, with urea added to a final concentration of 5 M] and cooled to −20° C. until all time points were collected. The fractions were analyzed by PAGE using Novex 15% TBE-Urea gel [Invitrogen, EC6885BOX] by running at 100 V for 2 hours and stained by 1×SYBR Gold [ThermoFisher Scientific, S11494], and visualized using BioRad ChemiDoc MP Imaging System [12003154]. Band intensities were quantified using ImageJ.

[6] = system: HeLa cells; experiment: NLuc bioluminometry of circRNA/QRNA (Fluc transfection control); assay type: cell-based; conditions: capped oligo:circRNA up to 80:1 molar ratio
Procedure: Synthetic linear mRNA encoding NanoLuciferase (NLuc) was prepared from DNA template by IVT with 100% m1ψ substitution. The triphosphorylated mRNA after IVT was then treated with Calf Intestinal Alkaline Phosphatase (CIAP) to yield 5′/3′-hydroxyl mRNA. A chemically synthesized oligonucleotide with a branched m7G cap and 5′/3′-phosphates was then ligated to the 5′/3′-hydroxyl mRNA by T4 RNA ligase, which ligates the 5′-phosphate on the oligo and 3′-hydroxyl of the mRNA. The ligation product was then further treated with RtcB ligase, which ligates the 5′-hydroxyl and 3′-phosphate ends to enable intramolecular circularization. […] Using one primer only produced no fragmentation but only linearization, confirming successful circularization. Using double primers produced fragments flanking the branched region, where branched topology was confirmed by gel shift. […] NLuc bioluminometry was measured 8 hrs post transfection and normalized Firefly luciferase as transfection control. Mean±s.e.m., n=3. P values were calculated by ordinary one-way ANOVA (alpha=0.05), with multiple comparisons to circ-NLuc with only 5-octadiynyl deoxyuridine (OU) handle (construct 45). ****P<0.0001, n.s. P>0.05. […] QRNA with m7G (construct 48) was compared. n=3, biological replicates. Mean±sem. P values were calculated by ordinary one-way ANOVA with multiple comparisons against construct 61 without any cotransfected capped oligos (Dunnett's multiple comparison test). […] P values were calculated by unpaired two-sided t-test.
HeLa cells [ATCC, CCL-2] were maintained in DMEM culture media [ThermoFisher Scientific, 119951] containing 10% FBS and 1% penicillin-streptomycin [ThermoFisher Scientific, 15070063] in a 37° C. incubator with 5% CO2 and passaged at a ratio of 1:10 every 3 days. […] Cells were lysed and luciferase activity was measured using the Promega Dual Glo Luciferase Assay System [Promega, E2920]. Firefly luminescence/Renilla luminescence for each well was used as mRNA activity readout. […]

[7] = target: eIF4E (UniProt P06730 P06730:1-217); experiment: EMSA; 50 mM KCl, 10 mM Tris-HCl pH 7.6, 1 mM DTT, 4 C; conditions: tags: His tag; Cayman Chemical 25150; label: 3' AF647-cytidine (EMSA)
Procedure: as §2, §3

Sequence of eIF4E (UniProt P06730 P06730:1-217) (P06730 whole entry, one chain of several): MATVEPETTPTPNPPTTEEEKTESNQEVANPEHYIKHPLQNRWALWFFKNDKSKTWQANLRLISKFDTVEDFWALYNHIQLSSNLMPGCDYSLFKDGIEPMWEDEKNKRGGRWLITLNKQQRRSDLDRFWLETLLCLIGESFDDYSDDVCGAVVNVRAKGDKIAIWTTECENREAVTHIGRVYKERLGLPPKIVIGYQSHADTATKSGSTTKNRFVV
T1 sequence (P06730 whole entry): as the sequence (P06730 whole entry, one chain of several) above

construct S21: hEPO mRNA with m7G-rG cap, in LNP (SEQ ID NO: 138) (GGAGAAUAAAAA; RNA, 5' {m7G}, backbone not given here; capped 5' oligo ligated to hEPO mRNA, formulated in LNP) [reference compound]
Effect on reticulocyte counts, result in words ([1]; day 6, vs poly(C)-LNP): non-significant | Reticulocytes, % of total red blood cells ([1]; day 6 post-administration): 4±0.3% | Peak plasma hEPO expression [2]: 733±123 mlU/mL

construct 15: m7G cap; /5Phos/mAmGmAmGmAmArUrArArArArA (SEQ ID NO: 16) ({P}-mAmGmAmGmAmArUrArArArArA; m7G cap on the 5'-phosphate)
Protein expression (Firefly luciferase luminescence normalized to Renilla, then to m7G-rG), fold increase [3]: 6.9 fold | Kd [4]: 2450 ± 140 nM | Susceptibility / resistance to hDcp2 decapping ([5]; listed as 2′OMe at first 6 bases): increased decapping resistance to a similar level as LNA modification | Susceptibility / resistance to hDcp2 decapping ([5]; listed as 2′OMe within the first 6 bases): increased decapping resistance

construct 22: LNAm7G cap; /5Phos/+ArGrArGrArArUrArArArArA (SEQ ID NO: 23) ({P}-lArGrArGrArArUrArArArArA; LNA-modified m7G cap on the 5'-phosphate)
Protein expression (Firefly luciferase luminescence normalized to Renilla, then to m7G-rG), fold increase [3]: 8.6 fold | Kd [4]: 1420 ± 126 nM | Capped transcripts remaining after hDcp2 decapping ([5]; after 60 minutes): 71%~73

construct 61: m1ψ NLuc circRNA with 20-nt insert, annealed non-covalently to m7G-capped complementary oligo (SEQ ID NO: 116, 177) (chain 1 AAAAACUUACCAAGCGAAGAACAGAAAAA; chain 2 GUCUGUUCUUCGCUUGGUAAG; m1ψ; circRNA; m7G-capped complementary oligo annealed; modified_base 1 OTHER; 5'-phosphate modified nucleotide; modified_base 29 OTHER; 3'-phosphate modified nucleotide; 5'-phosphate modified 7-methylguanosine)
Enhancement of NLuc protein production by non-covalent complementary capped oligo [6]: up to 5 fold

B1: m7G-6x2OMe (15) (ssRNA)
RNA: AGAGAAUAAAAA
modifications: 5' m7G cap; 2'-OMe at positions 1-6
Kd [7]: 2450 nM

B2: LNAm7G-2OMex6 (24) (ssRNA)
RNA: AGAGAAUAAAAA
modifications: 5' m7G cap with LNA sugar; 2'-OMe at positions 1-6
Kd [7]: 1570 nM

B3: LNAm7G-LNA (22) (ssRNA)
RNA: AGAGAAUAAAAA
modifications: 5' m7G cap with LNA sugar; LNA at position 1
Kd [7]: 1420 nM

Source: patent US20260263638A1, “COMPOSITIONS AND METHODS TO IMPROVE RNA PROPERTIES USING BASE, PHOSPHODIESTER LINKAGE, SUGAR BACKBONE, AND CAP MODIFICATIONS” (The Broad Institute, Inc., priority 2023, published 2026)
